Patent US7893256B2, “Azabicycloalkane compounds” (Theravance, Inc., priority 2003, dated 2011)

Tests used:
hM2 receptor = target: T1, hM2 receptor (Homo sapiens, UniProt P08172); experiment: Blockade of agonist-mediated [35S]GTPγS binding (Assay Test Procedure D, B); assay type: biochemical; settings: CHO-K1 cells expressing the hM2 receptor; read-out: Ki value for blockade of oxotremorine-stimulated [35S]GTPγS binding
T1 construct: expressed in transfected cells; host or cells: CHO-K1 cells
T1 sequence (P08172 1-466): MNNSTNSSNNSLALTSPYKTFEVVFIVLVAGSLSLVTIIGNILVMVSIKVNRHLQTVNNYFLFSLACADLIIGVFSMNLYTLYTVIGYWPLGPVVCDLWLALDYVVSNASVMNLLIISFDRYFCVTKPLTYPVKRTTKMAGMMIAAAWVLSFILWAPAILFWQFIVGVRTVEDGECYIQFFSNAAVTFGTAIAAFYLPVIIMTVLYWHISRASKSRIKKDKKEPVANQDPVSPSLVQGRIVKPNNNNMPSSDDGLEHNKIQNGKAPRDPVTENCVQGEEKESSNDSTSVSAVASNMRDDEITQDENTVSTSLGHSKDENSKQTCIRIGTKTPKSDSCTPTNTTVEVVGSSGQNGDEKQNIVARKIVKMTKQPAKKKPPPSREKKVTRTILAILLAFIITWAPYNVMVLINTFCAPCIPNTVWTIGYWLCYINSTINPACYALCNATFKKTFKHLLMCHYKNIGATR
Protocol: In a second functional assay, the functional potency of test compounds was determined by measuring the ability of the compounds to block oxotremorine-stimulated [^35S]GTPγS binding in CHO-K1 cells expressing the hM2 receptor.
At the time of use, frozen membranes were thawed and then diluted in assay buffer with a final target tissue concentration of 5-10 μg protein per well. The membranes were briefly homogenized using a Polytron PT-2100 tissue disrupter and then added to the assay plates.
The EC90 value (effective concentration for 90% maximal response) for stimulation of [^35S]GTPγS binding by the agonist oxotremorine was, determined in each experiment.
To determine the ability of a test compound to inhibit oxotremorine-stimulated [^35S]GTPγS binding, the following was added to each well of 96 well plates: […] of assay buffer with [^35S]GTPγS (0.4 nM), 25 μL of oxotremorine (EC90) and GDP (3 uM), 25 μL of diluted test compound and 25 μL CHO cell membranes expressing the hM2 receptor. […] Microscint-20 scintillation liquid (50 μL) was added to each well, and each plate was sealed and radioactivity counted on a Topcounter (PerkinElmer). Data were analyzed by nonlinear regression analysis with the GraphPad Prism Software package (GraphPad Software, Inc., San Diego, Calif.) using the non-linear regression, one-site competition equation. […]

[1] = target: T2, M3 muscarinic receptor (hM3) (Homo sapiens, UniProt P20309); experiment: Radioligand binding assay for muscarinic receptors (Assay Test Procedure B); settings: radioligand displacement, CHO cell membranes, [3H]-NMS
T2 construct: expressed in transfected cells; membranes
T2 sequence (P20309 whole entry): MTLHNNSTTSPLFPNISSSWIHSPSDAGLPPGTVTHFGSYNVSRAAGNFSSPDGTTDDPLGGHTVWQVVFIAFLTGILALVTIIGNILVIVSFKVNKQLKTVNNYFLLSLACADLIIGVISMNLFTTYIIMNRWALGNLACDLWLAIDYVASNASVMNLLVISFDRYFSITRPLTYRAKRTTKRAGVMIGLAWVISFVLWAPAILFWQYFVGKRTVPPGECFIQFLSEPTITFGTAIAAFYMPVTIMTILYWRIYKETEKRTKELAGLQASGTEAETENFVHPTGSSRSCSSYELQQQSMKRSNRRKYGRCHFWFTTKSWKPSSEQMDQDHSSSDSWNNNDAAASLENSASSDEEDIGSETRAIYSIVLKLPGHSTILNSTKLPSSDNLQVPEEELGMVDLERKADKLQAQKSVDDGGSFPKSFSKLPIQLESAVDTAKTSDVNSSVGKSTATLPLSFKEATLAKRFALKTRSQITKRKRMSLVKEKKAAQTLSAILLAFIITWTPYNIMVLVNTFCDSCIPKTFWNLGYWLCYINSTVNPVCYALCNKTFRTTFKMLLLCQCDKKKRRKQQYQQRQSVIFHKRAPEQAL
Protocol: CHO cell lines stably expressing cloned human hM1, hM2, hM3 and hM4 muscarinic receptor subtypes, respectively, were grown to near confluency in HAM's F-12 media supplemented with 10% FBS and 250 μg/mL Geneticin. The cells were grown in a 5% CO2, 37° C. incubator and lifted with 2 mM EDTA in dPBS. Cells were collected by 5 minute centrifugation at 650×g, and cell pellets were either stored frozen at −80° C. or membranes were prepared immediately for use. For membrane preparation, cell pellets were resuspended in lysis buffer and homogenized with a Polytron PT-2100 tissue disrupter (Kinematica AG; 20 seconds×2 bursts). Crude membranes were centrifuged at 40,000×g for 15 minutes at 4° C. […] The protein concentration of the membrane suspension was determined by the method described in Lowry et al., 1951, Journal of Biochemistry, 193, 265. […]
Radioligand binding assays for cloned human muscarinic receptors were performed in 96-well microtiter plates in a total assay volume of 100 μL. […] Filter plates were rinsed three times with wash buffer (10 mM HEPES) to remove unbound radioactivity. […] The plates were then counted in a PerkinElmer Topcount liquid scintillation counter (PerkinElmer Inc., Wellesley, Mass.). Binding data were analyzed by nonlinear regression analysis with the GraphPad Prism Software package (GraphPad Software, Inc., San Diego, Calif.) using the one-site competition model. […]

C[N+]1(CCCCCCCCCNC[C@H](O)c2ccc(O)c3[nH]c(=O)ccc23)C2CC(OC(=O)C(O)(c3cccs3)c3cccs3)CC1C1OC12.C[N+]1(CCCCCCCCCNC[C@H](O)c2ccc(O)c3[nH]c(=O)ccc23)C2CC(OC(=O)C(O)(c3cccs3)c3cccs3)CC1C1OC12.O=C([O-])C(F)(F)F.O=C([O-])C(F)(F)F (stereo partly drawn) [Example 1, 7-(2-Hydroxy-2,2-dithiophen-2-ylacetoxy)-9-{9-[(R)-2-hydroxy-2-(8-hydroxy-2-oxo-1,2-dihydroquinolin-5-yl)ethylamino]nonyl}-9-methyl-3-oxa-9-azonia-tricyclo[3.3.1.0^2,4]nonane Ditrifluoroacetate]
Ki (hM2 receptor): < 50 nM | Ki [1]: < 50 nM
